A short description of data set [1]: Responsiveness to 6-MP drug therapy by TPMT genotype in IBD patients (Example IV). Type of data set: in vivo, human. The protocol:
The genotype of TPMT was determined in IBD patients that were responders and non responders. Genotyping of TPMT was measured essentially as described previously (Baccichet et al., Leuk. Res. 21:817-823 (1997); Zietkiewicz et al., Gene 205:161-171 (1997)).

The nature of data set [2]: 6-MP metabolite levels by gender and age in pediatric IBD patients (Example III). Conditions: for 6-TG level / 6-MMP level: TPMT wild type. Format: in vivo, human. As to the method:
These patients were wild type for TPMT. Patients were assessed based on gender and age as it relates to puberty. Puberty is established at 12 years of age in girls and 14 years of age in boys.

The nature of data set [3]: 6-TG levels by TPMT genotype in IBD patients (Example IV). Format: in vivo, human. Conditions: for mean 6-TG: in pmol/8×10^8 RBC. As to the method:
The genotype of TPMT was determined in IBD patients that were responders and non responders. Genotyping of TPMT was measured essentially as described previously (Baccichet et al., Leuk. Res. 21:817-823 (1997); Zietkiewicz et al., Gene 205:161-171 (1997)). […] All heterozygote patients were responders to 6-MP.

For data set [4] the following is noted: erythrocytes.
Source text: The 93 patients were pediatric patients, with 80 diagnosed as having CD, 8 diagnosed as having UC, and 5 diagnosed as having indeterminate colitis (CD or UC). All but 7 patients were given AZA. The dosages were converted to 6-MP equivalents using a factor of 2.07 as described in Example I. For some patients, two or more samples were obtained and analyzed. Response to 6-MP was defined by clinical remission (HBI<5, closed fistula) without corticosteroids. Disease activity and physical exam were ascertained at each clinic visit at which 6-MP metabolite levels were determined (clinical evaluation point). Hematological, pancreatic and hepatic laboratory parameters were evaluated simultaneously Erythrocyte 6-TG and 6-MMP concentrations (pmol/8×10^8 RBC) were measured by HPLC (Cuffari et al., supra, 1996a).
The number of samples corresponds to the number of different samples obtained from the 93 patients.
Data set [5] can be described thus: Erythrocyte 6-MP metabolite levels by reverse phase HPLC in IBD patients on 6-MP drug (Example I). Conditions: erythrocytes.
Procedure: Briefly, blood was sampled (n=89) prior to daily administration of 6-MP in 55 IBD patients (CD n=51, UC n=4) receiving 1-1.5 mg/kg/day over at least a 4 month period (≧4 mo.). When AZA was administered, a conversion factor of 2.07 was used to convert to the equivalent 6-MP dose. Twice as much AZA is administered relative to 6-MP to have an equivalent dose of 6-MP.
Erythrocyte 6-TG, 6-MMP and 6-MP thiobases were measured (pmol/8×10^8 RBC) using reverse phase HPLC. Briefly, blood samples were collected in EDTA (ethylene diamine tetraacetic acid) as anticoagulant. Cells were centrifuged and washed three times with an equal volume of 0.9% saline. Washed packed cells were stored at −70° C. until analysis was performed.
For acid hydrolysis, 500 μl deionized H2O, 50 μl thawed red blood cells, 40 μl of the appropriate standard or control, 500 μl 3.0 NH2SO4, and 300 μl 10 mM dithiothreitol (DTT) was added to an 8 ml glass screw cap tube. The capped tubes were placed in a heating block preheated to 100° C. and hydrolyzed. For 6-MMP, hydrolysis was carried out for 5 hours. For 6-MP and 6-TG, hydrolysis was carried out for 1 hour. After the incubation, tubes were cooled in a room temperature water bath. To tubes hydrolyzed for 5 hours (6-MMP), 400 μl 3.4 N NaOH and 1.0 ml 2 M Tris buffer, pH 9.0 was added. To tubes hydrolyzed for 1 hour (6-MP/6-TG), 450 μl 3.4 N NaOH and 500 μl 2M Tris base was added. A volume of 4 ml 0.03% phenylmercuric chloride in methylene chloride was added to each tube. The tubes were capped and lightly agitated on a bi-directional rotator (15 min for 6-MMP and 30 min for 6-MP/6-TG). The contents were transferred to a 15 ml polypropylene centrifuge tube and centrifuged at 3500 rpm for 3 min at 10° C. The aqueous phase (top layer) was discarded, and 3.0 ml of the organic phase (bottom layer) was transferred to a clean 15 ml polypropylene centrifuge tube. The analytes in the organic phase were back extracted by adding 225 μl 0.1 N HCl and lightly mixing on an orbital rotator for 5 min. Following vortexing for 30 seconds, the tubes were centrifuged at 3500 rpm for 3 min at 10° C.
For 6-MMP analysis, 50 μl analyte was analyzed on a C18 reverse phase column with the mobile phase containing 1 mM DTT, 2.078% triethylamine and 4% methanol, adjusted to pH 3.2 with concentrated H3PO4. For 6-MP and 6-TG analysis, 100 μl analyte was analyzed on a C18 reverse phase column using 0.1 M H3PO4 and 1 mM DTT in H2O as the mobile phase.
Clinical remission was defined as a Harvey Bradshaw Index <5 in those patients off corticosteroids or weaned to a level of prednisone ≦0.4 mg/kg/od (administered every other day). Treatment failures were defined as non-responders (HBI>5 or steroid dependence) or cessation of 6-MP due to side effects.
The conditions of data set [6]: human, in vivo. The protocol: All but 7 patients were given AZA.
Toxicity was measured essentially as described previously (Cuffari et al., supra; 1996a).

Like-named read-outs stand apart in the source and are kept apart here. Marks after values point to notes of the source that are not given here.

As to `Sc1ncnc2nc[nH]c12` [6-MP, 6-Mercaptopurine], in data set [1] (8 of 93 patients heterozygotes), the “response of TPMT heterozygotes to 6-MP” value was “All 8 heterozygotes responded”. For the same compound, in data set [1] (TPMT Heterozygote IBD patients), the Non. responder came out at 0% and the Responder is 100%. In data set [1] (TPMT Normal IBD patients), this compound showed a Non. responder of 45% and a Responder of 55%.
In the case of `Nc1nc2nc[nH]c2c(=S)[nH]1` [6-TG, 6-thioguanine], the 6-TG level in data set [2] (Boys (0-14 y), 51 observed) is listed as 235.0 pmol per 8 × 10^8 RBC; in data set [2] (Boys (>14 y), 104 observed), 222.5 pmol per 8 × 10^8 RBC; in data set [2] (Girls (0-12 y), 39 observed), 182.2 pmol per 8 × 10^8 RBC; in data set [2] (Girls (>12 y), 116 observed) it was 217.2 pmol per 8 × 10^8 RBC. For the same compound, the “mean 6-TG” value was 589* in data set [3] (TPMT Heterozygote patients, p less than 0.0001) and 247 in data set [3] (TPMT Normal patients). Also, the “6-TG levels of TPMT heterozygotes” value in data set [3] (all 8 heterozygotes) is given as more than 230 pmol/8×10^8 RBC. The “median 6-TG” value in data set [4] (Relapse, n=72 samples) is on record as 197 pmol/8×10^8 RBC; in data set [4] (Remission, n=106 samples, p<0.0001), 309* pmol/8×10^8 RBC; in data set [5] (Hematologic toxicity group, n=6, p<0.03) it was 414+ pmol per 8×10^8 RBC; in data set [5] (Hepatic toxicity group, n=7) it was 258 pmol per 8×10^8 RBC; in data set [5] (Non-responders, n=31, p<0.001), 184* pmol per 8×10^8 RBC; in data set [5] (Pancreatic toxicity group, n=6) it was 211 pmol per 8×10^8 RBC. The “median 6-TG” value in data set [5] (Responders, n=58 samples, 6-MP 1-1.5 mg/kg/day ≥4 mo.) turned out to be 295 pmol per 8×10^8 RBC.
Turning to `CSc1ncnc2nc[nH]c12` [6-MMP, 6-methyl-mercaptopurine], the “6-MMP level associated with hepatotoxicity” value in data set [6] is listed as “greater than 7000 pmol 6-MMP/8×10^8”. Also, the “Ratio 6-MMP/6-TG” value in data set [2] (Boys (0-14 y)) is 17.24; in data set [2] (Boys (>14 y), p<0.001) it was 6.78*; in data set [2] (Girls (0-12 y)) it was 18.52; in data set [2] (Girls (>12 y)), 12.55. Further, the 6-MMP level was 3681.6 pmol per 8 × 10^8 RBC in data set [2] (Boys (0-14 y), 51 observed); 1662.3* pmol per 8 × 10^8 RBC in data set [2] (Boys (>14 y), 104 observed, p<0.001); 3447.0 pmol per 8 × 10^8 RBC in data set [2] (Girls (0-12 y), 39 observed); 3304.5 pmol per 8 × 10^8 RBC in data set [2] (Girls (>12 y), 116 observed). Also, the “Median 6-MMP” value worked out at 1602 pmol/8×10^8 RBC in data set [4] (Relapse, n=72 samples) and 2600 pmol/8×10^8 RBC in data set [4] (Remission, n=106 samples).

The values are drawn from patent US8030293B2, “Methods of optimizing drug therapeutic efficacy for treatment of immune-mediated gastrointestinal disorders” (Hopital-Sainte-Justine, priority 1998, dated 2011).
